According to article PMC7287031 (Pharmacology Research & Perspectives, 2020):
Read-outs that look alike come from different tables or passages of the source.

Tests used:
CYP3A5 = target: T1, CYP3A5 (Homo sapiens, UniProt P20815); assay: Enzyme kinetics with recombinant CYP3A5 and scaling to HLM; assay type: in vitro ADME
T1 construct: purchased BD Biosciences
Description: (§1) In vitro incubations were carried out in 100‐mM potassium phosphate buffer (pH 7.4) and 5‐mM MgCl2 with a total volume of 200 µL. Substrate and either human liver microsomes (HLM, BD Biosciences, mixed gender pool of n = 50) or recombinant human enzymes (BD Biosciences) were added and pre‐incubated for 3 minutes at 37°C. The reaction was started by addition of a fresh solution of NADPH (1 mmol/L final concentration). The samples were incubated at 37°C with agitation of 500 rpm. For incubations with CYP2A6, CYP2C9, CYP2C18, and CYP4A11, the phosphate buffer was replaced by TRIS buffer (100 mmol/L, pH 7.4) and for flavin‐containing monooxygenases (FMOs), a glycine buffer (50 mM, pH 9.5) was used.
The enzymatic reaction was stopped and the protein was precipitated by addition of an equal volume of methanol. After 30 min at −80°C, the samples were centrifuged at 30'000 x g for 15 min. The supernatant was withdrawn. Aliquots were analyzed by LSC and the supernatant was diluted with water to obtain a final solution containing less than 20% of the organic solvent. For samples of low substrate concentration, supernatants were evaporated to dryness under nitrogen, then re‐suspended in water containing less than 20% of methanol. Samples were analyzed by HPLC combined with radiodetection. […]

[1] = Human ADME study: PK of ribociclib and LEQ803 in plasma and urine (validated bioanalytical assay); assay type: in vivo; settings: for AUC(0-inf) / AUC(0-t) / Cmax / half-life: plasma, po, 600 mg
Description: Subjects continued to fast for 4 hours after drug administration.
Plasma aliquots at each time point were subjected to protein precipitation with three volumes of acetonitrile containing 0.1% (v:v) formic acid, followed by dilution and analysis by liquid chromatography‐tandem mass spectrometry in selected reaction monitor‐positive ion mode using heated electrospray ionization as the ionization technique. For urine aliquots, six volumes of acetonitrile containing 0.1% (v:v) formic acid were added, followed by dilution and analysis in the same way as for plasma. Components were separated using a YMC‐Triart C18 (2.0 x 30 mm, 1.9 µm) column (YMC Co. Ltd.). […] Mobile phase A was 0.1% formic acid in H2O while mobile phase B was 0.1% formic acid in ACN:Isopropanol 8:2 v:v.

[2] = Integrated estimation of ribociclib elimination pathways in humans; parameters: species or system human
CYP3A4 = target: T2, CYP3A4 (Homo sapiens, UniProt P08684); assay: Enzyme kinetics with recombinant CYP3A4 and scaling to HLM; assay type: in vitro ADME
T2 construct: purchased BD Biosciences
Description: as §1
The enzymatic reaction was stopped and the protein was precipitated by addition of an equal volume of methanol. […] The supernatant was withdrawn. Aliquots were analyzed by LSC and the supernatant was diluted with water to obtain a final solution containing less than 20% of the organic solvent. For samples of low substrate concentration, supernatants were evaporated to dryness under nitrogen, then re‐suspended in water containing less than 20% of methanol. Samples were analyzed by HPLC combined with radiodetection.

[3] = Dog ADME study: excretion, mass balance, metabolite profiling with radiolabeled ribociclib; assay type: in vivo
Description: ADME studies (including QWBA in pigmented and non‐pigmented rats) using radiolabeled ribociclib were conducted in rat and dog. Relevant institutional and national guides for the care and use of laboratory animals were followed.
Metabolite profiling was conducted on plasma, urine, bile, and feces samples in the rat and dog ADME studies, and further metabolite profiling on plasma and milk was conducted in a dedicated rat milk excretion study.
Plasma samples obtained from these studies were extracted with equal volumes of acetonitrile. Additional extractions of the protein pellet with acetonitrile and/or acetone were conducted as needed to maximize radioactivity recovery. Feces samples were initially extracted with two to four volumes of acetonitrile. Additional extractions of the pellet following centrifugation and removal of supernatant were conducted with acetonitrile and/or acetone as needed to maximize radioactivity recovery. Urine and bile samples were analyzed directly following centrifugation. Radioactivity recoveries following the centrifugation step were measured by LSC. Milk samples were extracted with two volumes of acetonitrile, following centrifugation and removal of supernatant, the pellets were re‐suspended in 100 µL of water and re‐extracted with 200 µL acetonitrile.
Metabolite profiling in the ADME studies was conducted using liquid chromatography‐mass spectrometry. Radioactivity profiles were generated by diversion of the majority of the post‐column flow into 96‐well yttrium silicate scintillation‐coated plates (Deepwell Lumaplates; Perkin Elmer Life and Analytical Sciences Inc), by means of Gilson FC204 fraction collectors (Gilson). Metabolites were identified by mass spectrometry (Waters QTOF operating under MassLynx 4.1) and, where feasible, by comparison with authentic reference standards.

human liver microsomes = assay: Enzyme kinetics of total oxidative metabolism in pooled human liver microsomes; assay type: in vitro ADME; settings: pooled HLM, Michaelis-Menten model
Description: as §1
(§2) The enzymatic reaction was stopped and the protein was precipitated by addition of an equal volume of methanol. After 30 min at −80°C, the samples were centrifuged at 30'000 x g for 15 min. The supernatant was withdrawn. Aliquots were analyzed by LSC and the supernatant was diluted with water to obtain a final solution containing less than 20% of the organic solvent. […] Samples were analyzed by HPLC combined with radiodetection.
(§3) Km and Vmax parameters were calculated by using SigmaPlot Version 8.0, Enzyme Kinetics module Version 1.1 software (SPSS Science Inc, Chicago, IL, USA). The intrinsic clearance was calculated by the equation: CLint = Vmax/Km.

[4] = as above; assay type: in vitro ADME; settings: both sexes, human, pooled human liver microsomes, pH 7.4; pooled HLM, Michaelis-Menten model
Description: as §1, §2, §3

[5] = human estimate based on rat ADME data
[6] = oral dosing of radiolabeled ribociclib

T2 sequence (P08684 whole entry): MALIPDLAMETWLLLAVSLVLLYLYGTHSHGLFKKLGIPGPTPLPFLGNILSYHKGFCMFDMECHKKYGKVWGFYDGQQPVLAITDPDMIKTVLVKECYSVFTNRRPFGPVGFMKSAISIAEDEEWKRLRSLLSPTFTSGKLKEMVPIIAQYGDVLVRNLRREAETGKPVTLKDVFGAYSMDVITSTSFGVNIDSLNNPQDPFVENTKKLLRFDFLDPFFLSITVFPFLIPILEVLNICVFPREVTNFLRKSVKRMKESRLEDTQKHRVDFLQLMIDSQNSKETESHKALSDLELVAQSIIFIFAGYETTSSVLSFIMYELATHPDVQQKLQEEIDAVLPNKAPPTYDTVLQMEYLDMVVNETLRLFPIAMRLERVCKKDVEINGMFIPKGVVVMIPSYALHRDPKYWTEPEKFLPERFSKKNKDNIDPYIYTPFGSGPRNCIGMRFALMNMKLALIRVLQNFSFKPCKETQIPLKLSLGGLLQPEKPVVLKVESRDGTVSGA
T1 sequence (P20815 whole entry): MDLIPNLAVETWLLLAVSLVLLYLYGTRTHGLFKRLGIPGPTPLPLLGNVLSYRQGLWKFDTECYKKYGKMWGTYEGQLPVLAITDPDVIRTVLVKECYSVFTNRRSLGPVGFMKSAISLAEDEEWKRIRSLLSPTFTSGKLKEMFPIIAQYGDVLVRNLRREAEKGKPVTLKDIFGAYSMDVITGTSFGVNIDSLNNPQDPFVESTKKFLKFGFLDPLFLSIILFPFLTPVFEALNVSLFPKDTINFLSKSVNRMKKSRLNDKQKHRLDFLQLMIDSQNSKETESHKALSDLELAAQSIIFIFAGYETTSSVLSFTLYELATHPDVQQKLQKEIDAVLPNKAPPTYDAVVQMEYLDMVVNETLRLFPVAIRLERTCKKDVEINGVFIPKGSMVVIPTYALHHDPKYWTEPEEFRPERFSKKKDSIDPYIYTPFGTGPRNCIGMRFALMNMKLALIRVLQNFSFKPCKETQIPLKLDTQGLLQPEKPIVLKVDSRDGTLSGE

In the case of `CN(C)C(=O)c1cc2cnc(Nc3ccc(N4CCNCC4)cn3)nc2n1C1CCCC1` [ribociclib, Ribociclib], the “fm,CYP” value (CYP3A5; CYP3A5, share of total CYP-mediated metabolism in HLM) is reported as 1.2%, the fumic (CYP3A5; CYP3A5 incubation) is reported as 0.87 and the “Ribociclib in urine by validated bioanalytical assay” value ([1]; human) is reported as 6.75 % of the dose. For the same compound, the “renal clearance lower than non-renal clearance” value ([1]; human) was “more than 10 fold”, the Tmax ([1]; human plasma, bioanalytical assay, single oral 600 mg, N=6, read-out: tmax, median (range)) was 1.75 h and the AUC(0-inf) ([1]; human, human plasma, bioanalytical assay, single oral 600 mg, N=6, read-out: AUCinf, arithmetic mean (CV %)) was 8700 ng·h/mL. For the same compound, the AUC(0-inf) ([1]; human, human plasma, bioanalytical assay, single oral 600 mg, N=6, read-out: AUCinf, median) was 8880 ng·h/mL, the AUC(0-t) ([1]; human, human plasma, bioanalytical assay, single oral 600 mg, N=6, read-out: AUClast, arithmetic mean (CV %)) was 8600 ng·h/mL and the AUC(0-t) ([1]; human, human plasma, bioanalytical assay, single oral 600 mg, N=6, read-out: AUClast, median) was 8780 ng·h/mL. It also gave a Cmax ([1]; human, human plasma, bioanalytical assay, single oral 600 mg, N=6, read-out: Cmax, arithmetic mean (CV %)) of 507 ng/mL, a Cmax ([1]; human, human plasma, bioanalytical assay, single oral 600 mg, N=6, read-out: Cmax, median) of 518 ng/mL and a half-life ([1]; human, human plasma, bioanalytical assay, single oral 600 mg, N=6, read-out: t½, arithmetic mean (CV %) (converted)) of 54.7 h. For the same compound, the half-life ([1]; human, human plasma, bioanalytical assay, single oral 600 mg, N=6, read-out: t½, median (converted)) was 49.4 h, the “CL/F, median” value ([1]; human, single oral 600 mg) was 70.2 L/h and the CL renal ([1]; male, plasma and urine, human, single oral 600 mg, read-out: renal clearance, median (converted)) was 92.5 mL/min. For the same compound, the “biliary elimination, share of total” value [2, 5] was 1%, the “elimination by intestinal excretion/secretion, share of total” value [2, 5] was 8% and the “elimination by hepatic metabolism, share of total” value ([2]; human, integrated estimate) was “approx. 84%”. The “elimination by renal excretion, share of total” value ([2]; human, integrated estimate) was 7%, the “fm,CYP” value (CYP3A4; CYP3A4, share of total CYP-mediated metabolism in HLM) was 97% and the fumic (CYP3A4; CYP3A4 incubation) was 0.83. For the same compound, the Vmax (CYP3A4; recombinant CYP3A4, substrate inhibition model) was 12.3 ± 5.2 pmol/min/pmol, the “Recovery of radioactivity in mass balance study” value [3] was “approximately 90%” and the “radioactivity found in feces” value [3, 6] was 68.8%. For the same compound, the “radioactivity found in urine” value [3, 6] was 18.5%, the ribociclib in feces ([3]; p.o.) was 10.7 % of the oral dose and the “unchanged ribociclib in urine” value ([3]; p.o.) was 13.4 % of the dose. For the same compound, the “Vmax, total metabolism” value (human liver microsomes) was 766 ± 13 pmol/min/mg and the Km [4] was 29.1 ± 1.8 µM.
